Measurements: patent US9833497B2, “Human originated EGF domain proteins and use of the same” (CHENGDU SOURCEBIO LIMITED-LIABILITY COMPANY, priority 2013, dated 2017)

Experiments:
Assay type in all cases: cell-based
E. coli DH5α = experiment: Antibacterial activity: MIC and growth curve against E. coli DH5α in 96-well plate; conditions: minimal inhibitory concentration against E. coli DH5α; 96-well plate, 5×10^5 CFU/mL, 37° C., judged after 8 h
How it was run: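 MIC taken as lowest protein level with no bacterial growth, tracked by A600 every 30 min during 37 °C, 175 rpm culture. Two-fold protein series 50-12.5 μg/mL final, triplicate wells, against 5×10^5 CFU/mL of LB-washed mid-log cells.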

E. coli BL21 = experiment: MIC against Gram-negative bacteria: E. coli BL21; conditions: 5×10^5 CFU/mL; for MIC E. coli BL21: two-fold serial dilution
How it was run: (§1)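 Bacteria grown in LB at 37° C with shaking to McFarland 0.5, pelleted and resuspended in fresh LB, then seeded at 5×10^5 CFU/mL per well. Purified recombinant human EGF domain proteins were two-fold serially diluted in triplicate and plates shaken at 37° C, 175 rpm. MIC is the lowest protein concentration with no bacterial growth.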

Pseudomonas aeruginosa = experiment: MIC against Gram-negative bacteria: Pseudomonas aeruginosa; conditions: 5×10^5 CFU/mL; for MIC P. aeruginosa: two-fold serial dilution
How it was run: as §1

Klebsiella pneumonia = experiment: MIC against Gram-negative bacteria: Klebsiella pneumonia; conditions: 5×10^5 CFU/mL; for MIC K. pneumonia: two-fold serial dilution
How it was run: as §1

Enterobacter cloacae = experiment: MIC against Gram-negative bacteria: Enterobacter cloacae; conditions: 5×10^5 CFU/mL; for MIC E. cloacae: two-fold serial dilution
How it was run: as §1

Aeromonas hydrophila = experiment: MIC against Gram-negative bacteria: Aeromonas hydrophila; conditions: 5×10^5 CFU/mL; for MIC A. hydrophila: two-fold serial dilution
How it was run: as §1

Citrobacter diversus = experiment: MIC against Gram-negative bacteria: Citrobacter diversus; conditions: 5×10^5 CFU/mL; for MIC C. diversus: two-fold serial dilution
How it was run: as §1

Moraxella catarrhalis = experiment: MIC against Gram-negative bacteria: Moraxella catarrhalis; conditions: 5×10^5 CFU/mL; for MIC M. catarrhalis: two-fold serial dilution
How it was run: as §1

Proteus mirabilis = experiment: MIC against Gram-negative bacteria: Proteus mirabilis; conditions: 5×10^5 CFU/mL; for MIC P. mirabilis: two-fold serial dilution
How it was run: as §1

Proteus vulgaris = experiment: MIC against Gram-negative bacteria: Proteus vulgaris; conditions: 5×10^5 CFU/mL; for MIC P. vulgaris: two-fold serial dilution
How it was run: as §1

Serratia marcescens = experiment: MIC against Gram-negative bacteria: Serratia marcescens; conditions: 5×10^5 CFU/mL; for MIC S. marcescens: two-fold serial dilution
How it was run: as §1

[1] = P. aeruginosa, 10 h cultivation at 37° C.
[2] = K. pneumonia, 10 h cultivation at 37° C.
[3] = E. cloacae, 10 h cultivation at 37° C.
[4] = A. hydrophila, 10 h cultivation at 37° C.
[5] = C. diversus, 10 h cultivation at 37° C.
[6] = M. catarrhalis, 10 h cultivation at 37° C.
[7] = P. mirabilis, 10 h cultivation at 37° C.
[8] = P. vulgaris, 10 h cultivation at 37° C.
[9] = S. marcescens, 10 h cultivation at 37° C.

Substance: PRT159 (EYDACQRKPCQNNASCIDANEKQDGSNFTCVCLPGYTGELCQ; listed as Homo sapiens)
- MIC (E. coli DH5α): 25 µg/mL
- MIC (μg/mL) E. coli BL21 (E. coli BL21; 10 h cultivation at 37° C.): 50 µg/mL
- MIC (μg/mL) P. aeruginosa (Pseudomonas aeruginosa; [1]): 25 µg/mL
- MIC (μg/mL) K. pneumonia (Klebsiella pneumonia; [2]): 12.5 µg/mL
- MIC (μg/mL) E. cloacae (Enterobacter cloacae; [3]): 12.5 µg/mL
- MIC (μg/mL) A. hydrophila (Aeromonas hydrophila; [4]): 12.5 µg/mL
- MIC (μg/mL) C. diversus (Citrobacter diversus; [5]): 12.5 µg/mL
- MIC (μg/mL) M. catarrhalis (Moraxella catarrhalis; [6]): 12.5 µg/mL
- MIC (μg/mL) P. mirabilis (Proteus mirabilis; [7]): 25 µg/mL
- MIC (μg/mL) P. vulgaris (Proteus vulgaris; [8]): 12.5 µg/mL
- MIC (μg/mL) S. marcescens (Serratia marcescens; [9]): 25 µg/mL

Substance: PRT1086 (HFKPCRDKDLAYCLNDGECFVIETLTGSHKHCRCKEGYQGVRCD; listed as Homo sapiens)
- MIC (E. coli DH5α): 12.5 µg/mL
- MIC E. coli BL21 (E. coli BL21; 10 h cultivation at 37° C.): 25 µg/mL
- MIC P. aeruginosa (Pseudomonas aeruginosa; 10 h cultivation at 37° C.): 50 µg/mL
- MIC K. pneumonia (Klebsiella pneumonia; 10 h cultivation at 37° C.): 25 µg/mL
- MIC E. cloacae (Enterobacter cloacae; 10 h cultivation at 37° C.): 12.5 µg/mL
- MIC A. hydrophila (Aeromonas hydrophila; 10 h cultivation at 37° C.): 25 µg/mL
- MIC C. diversus (Citrobacter diversus; 10 h cultivation at 37° C.): 50 µg/mL
- MIC M. catarrhalis (Moraxella catarrhalis; 10 h cultivation at 37° C.): 25 µg/mL
- MIC P. mirabilis (Proteus mirabilis; 10 h cultivation at 37° C.): 12.5 µg/mL
- MIC P. vulgaris (Proteus vulgaris; 10 h cultivation at 37° C.): 50 µg/mL
- MIC S. marcescens (Serratia marcescens; 10 h cultivation at 37° C.): 12.5 µg/mL

Substance: PRT553 (CQCPGGRCDPHTGRCNCPPGLSGERCDTCSQQHQVPVPGGPVGHSIHCEV; listed as Homo sapiens)
- MIC (E. coli DH5α): 25 µg/mL
- MIC against E. coli BL21 (E. coli BL21; 96-well plate, 37° C., 10 h): 50 µg/mL
- MIC against P. aeruginosa (Pseudomonas aeruginosa; 96-well plate, 37° C., 10 h): 25 µg/mL
- MIC against K. pneumonia (Klebsiella pneumonia; 96-well plate, 37° C., 10 h): 12.5 µg/mL
- MIC against E. cloacae (Enterobacter cloacae; 96-well plate, 37° C., 10 h): 25 µg/mL
- MIC against A. hydrophila (Aeromonas hydrophila; 96-well plate, 37° C., 10 h): 50 µg/mL
- MIC against C. diversus (Citrobacter diversus; 96-well plate, 37° C., 10 h): 25 µg/mL
- MIC against M. catarrhalis (Moraxella catarrhalis; 96-well plate, 37° C., 10 h): 12.5 µg/mL
- MIC against P. mirabilis (Proteus mirabilis; 96-well plate, 37° C., 10 h): 25 µg/mL
- MIC against P. vulgaris (Proteus vulgaris; 96-well plate, 37° C., 10 h): 50 µg/mL
- MIC against S. marcescens (Serratia marcescens; 96-well plate, 37° C., 10 h): 25 µg/mL

Substance: PRT1192 (DIDECASNPCAAGGTCVDQVDGFECICPEQWVGATCQ; listed as Homo sapiens)
- MIC (E. coli DH5α): 25 µg/mL
- MIC E. coli BL21 (E. coli BL21; 10 h cultivation at 37° C.): 12.5 µg/mL
- MIC P. aeruginosa (Pseudomonas aeruginosa; 10 h cultivation at 37° C.): 25 µg/mL
- MIC K. pneumonia (Klebsiella pneumonia; 10 h cultivation at 37° C.): 50 µg/mL
- MIC E. cloacae (Enterobacter cloacae; 10 h cultivation at 37° C.): 25 µg/mL
- MIC A. hydrophila (Aeromonas hydrophila; 10 h cultivation at 37° C.): 12.5 µg/mL
- MIC C. diversus (Citrobacter diversus; 10 h cultivation at 37° C.): 50 µg/mL
- MIC M. catarrhalis (Moraxella catarrhalis; 10 h cultivation at 37° C.): 25 µg/mL
- MIC P. mirabilis (Proteus mirabilis; 10 h cultivation at 37° C.): 12.5 µg/mL
- MIC P. vulgaris (Proteus vulgaris; 10 h cultivation at 37° C.): 50 µg/mL
- MIC S. marcescens (Serratia marcescens; 10 h cultivation at 37° C.): 25 µg/mL

Substance: PRT237 (DINECTPPYSVYCGFNAVCYNVEGSFYCQCVPGYRLHSGNEQFSNSNENTCQ; listed as Homo sapiens)
- MIC (E. coli DH5α): 25 µg/mL
- MIC (μg/mL) E. coli BL21 (E. coli BL21; 10 h cultivation at 37° C.): 12.5 µg/mL
- MIC (μg/mL) P. aeruginosa (Pseudomonas aeruginosa; [1]): 25 µg/mL
- MIC (μg/mL) K. pneumonia (Klebsiella pneumonia; [2]): 12.5 µg/mL
- MIC (μg/mL) E. cloacae (Enterobacter cloacae; [3]): 25 µg/mL
- MIC (μg/mL) A. hydrophila (Aeromonas hydrophila; [4]): 12.5 µg/mL
- MIC (μg/mL) C. diversus (Citrobacter diversus; [5]): 25 µg/mL
- MIC (μg/mL) M. catarrhalis (Moraxella catarrhalis; [6]): 12.5 µg/mL
- MIC (μg/mL) P. mirabilis (Proteus mirabilis; [7]): 25 µg/mL
- MIC (μg/mL) P. vulgaris (Proteus vulgaris; [8]): 25 µg/mL
- MIC (μg/mL) S. marcescens (Serratia marcescens; [9]): 50 µg/mL

Substance: PRT1140 (DVKDCLFLSCQDYGDCEDMVNNFRCICRPGFSGSLCE; listed as Homo sapiens)
- MIC (E. coli DH5α): 25 µg/mL
- MIC E. coli BL21 (E. coli BL21; 10 h cultivation at 37° C.): 50 µg/mL
- MIC P. aeruginosa (Pseudomonas aeruginosa; 10 h cultivation at 37° C.): 12.5 µg/mL
- MIC K. pneumonia (Klebsiella pneumonia; 10 h cultivation at 37° C.): 50 µg/mL
- MIC E. cloacae (Enterobacter cloacae; 10 h cultivation at 37° C.): 12.5 µg/mL
- MIC A. hydrophila (Aeromonas hydrophila; 10 h cultivation at 37° C.): 50 µg/mL
- MIC C. diversus (Citrobacter diversus; 10 h cultivation at 37° C.): 12.5 µg/mL
- MIC M. catarrhalis (Moraxella catarrhalis; 10 h cultivation at 37° C.): 50 µg/mL
- MIC P. mirabilis (Proteus mirabilis; 10 h cultivation at 37° C.): 12.5 µg/mL
- MIC P. vulgaris (Proteus vulgaris; 10 h cultivation at 37° C.): 50 µg/mL
- MIC S. marcescens (Serratia marcescens; 10 h cultivation at 37° C.): 100 µg/mL

Substance: PRT84 (EAGRCVPGVCRNGGTCTDAPNGGFRCQCPAGGAFEGPRCE; listed as Homo sapiens)
- MIC (E. coli DH5α): 12.5 µg/mL
- MIC (μg/mL) E. coli BL21 (E. coli BL21; 96-well plate, 37° C., 10 h): 25 µg/mL
- MIC (μg/mL) P. aeruginosa (Pseudomonas aeruginosa; Pseudomonas aeruginosa, 96-well plate, 37° C., 10 h): 12.5 µg/mL
- MIC (μg/mL) K. pneumonia (Klebsiella pneumonia; Klebsiella pneumonia, 96-well plate, 37° C., 10 h): 25 µg/mL
- MIC (μg/mL) E. cloacae (Enterobacter cloacae; Enterobacter cloacae, 96-well plate, 37° C., 10 h): 12.5 µg/mL
- MIC (μg/mL) A. hydrophila (Aeromonas hydrophila; Aeromonas hydrophila, 96-well plate, 37° C., 10 h): 25 µg/mL
- MIC (μg/mL) C. diversus (Citrobacter diversus; Citrobacter diversus, 96-well plate, 37° C., 10 h): 12.5 µg/mL
- MIC (μg/mL) M. catarrhalis (Moraxella catarrhalis; Moraxella catarrhalis, 96-well plate, 37° C., 10 h): 25 µg/mL
- MIC (μg/mL) P. mirabilis (Proteus mirabilis; Proteus mirabilis, 96-well plate, 37° C., 10 h): 12.5 µg/mL
- MIC (μg/mL) P. vulgaris (Proteus vulgaris; Proteus vulgaris, 96-well plate, 37° C., 10 h): 25 µg/mL
- MIC (μg/mL) S. marcescens (Serratia marcescens; Serratia marcescens, 96-well plate, 37° C., 10 h): 12.5 µg/mL
